The values below come from patent US12409174B2, “Combination of zibotentan and dapagliflozin for the treatment of endothelin related diseases” (priority 2020, dated 2025).

Data set [1] can be described thus: Zibotentan and dapagliflozin blood concentrations, Experiment 2. To be noted: male, Wistar, rat, Exp 2; for concentration at 4 h: 4 hr post first dose. The method, then:
In the second experiment (Experiment 2), the effect of zibotentan and dapagliflozin (alone or in combination) on Hct concentration and Hb was determined. Seventy-two animals were randomized on BW and Hct concentration, 2 to 3 days prior to administration of study drugs into the following groups; 1) Vehicle, 2) Zibotentan (30 mg/kg), 3) Zibotentan (100 mg/kg), 4) Dapagliflozin (3 mg/kg), 5) Zibotentan (30 mg/kg)+Dapagliflozin (3 mg/kg) and 6) Zibotentan (100 mg/kg)+Dapagliflozin (3 mg/kg). For practical reasons, the study was conducted in two consecutive slots with 36 animals (6/group) in each slot. Compounds were administered p.o. QD for seven days. Blood samples for bioanalysis were collected at 4 and 24 hr after the first dose and 24 hr after the final dose for Hct concentration and Hb analysis on day three and seven as described for exp.1. Twenty-four hour urine was collected between the third and fourth dose. 24 hr food and water intake was measured between day 2-3 and between day 6-7. With two animals per cage, food intake and water intake per animal in a cage was assessed by dividing the food intake and water intake of a cage by two.
The blood and urine concentrations of zibotentan and dapagliflozin were determined by a bioanalytical method using liquid chromatography with mass spectrometric detection (LC-MS/MS).
Whole blood samples for bioanalysis of dapagliflozin and zibotentan followed the same procedure. A volume of 20 μL whole blood was precipitated with 150 μL acetonitrile containing internal standard and quickly vortexed, followed by a 20 min centrifugation at 3220 g and 4° C. The supernatant was transferred to a fresh deep well plate and diluted 1:1 with water prior to LC-MS analysis. Matrix matched calibration samples and blanks were treated in the same way as study samples. Zibotentan samples were further diluted twice and three times at a 1:10 ratio with 33% acetonitrile, to ensure all diluted samples were detectible within the calibration range.
Sample concentrations were determined against matrix-spiked calibration standards over a range of 0.010 μM-10.0 μM for dapagliflozin and 0.75 μM-376 μM for zibotentan, applying weighted linear regression (1/X^2) using Waters TargetLynx software version XS V4.2 SCN986.
Samples were analyzed by using reversed-phase high-pressure liquid chromatography with rapid gradient elution. Compounds were detected with Waters Xevo TQ-S triple quadrupole mass spectrometer (Waters Corporation, Milford, MA, USA). The chromatographic separation was performed by an ACQUITY BEH C18 1.8 μM, 2.1×50 mm column at a temperature of 40° C. Mobile phase A was 2% acetonitrile and 0.2% formic acid in water (A), and mobile phase B was 0.2% formic acid in acetonitrile (B). Separation was achieved using the following elution gradient: 0 min to 1.5 min, 4% B ramping up to 95% B; 1.5 min to 2.3 min, kept at 95% B; 2.3 min to 2.4 min, 95% B to 4% B and kept at 4% B until 2.7 min. The flow rate was 0.7 mL/min.
Samples were analyzed by reversed-phase high-pressure liquid chromatography with rapid gradient elution. Compounds were detected with Waters Xevo TQ-S triple quadrupole mass spectrometer (Waters Corporation, Milford, MA, USA). Mobile phase A was 1M ammonium acetate/acetonitrile/water (0.1/2/97.5, v/v/v), and mobile phase B was 1M ammonium acetate/acetonitrile (0.1/99.5, v/v). Separation was performed by an ACQUITY BEH C18 1.8 μM, 2.1×50 mm column from Waters using the following gradient: 0 min to 2.5 min, 4% B ramping to 60% B; 2.5 min to 2.9 min, 60% B to 95% B; 2.9 min to 3.4 min kept at 95% B, and from 3.4 to 3.5 min mobile phase B was returned to 4% B and kept at 4% B until 4 min. The flow rate was 0.6 mL/min and column temperature was 40° C.

In data set [2] the test system is male Wistar rats on 4% salt diet. As to the kind of experiment: Effect of zibotentan on urinary volume and Na, K, urea, creatinine, glucose in the urine, Experiment 1. It counts as in vivo. To be noted: Exp 1; for Urine Creatine / Urine Glucose / Urine K / Urine Na / Urine Urea / Urine volume: 24 hr urine between doses nine and ten. The method, then:
(§1) In the first experiment (Experiment 1), the effect of zibotentan on haematocrit (Hct) concentration was determined when zibotentan was administered peroral (p.o) QD for 14 days. […] Animals were weighed daily prior to dosing throughout the experiment. Blood samples (20 μL) for bioanalysis were taken at 4 and 24 hr after the first dose via the tail vein from conscious animals and 24 hr after the last dose via retroorbital route from anesthetized animals. Blood samples were collected via tail vein (100 μL) for Hct concentration and haemoglobin (Hb) measurements, on day 7 and on day 14, 1-2 hr after dosing. Twenty-four hour urine was collected for the measurement of urinary glucose, urine volume and electrolytes between doses nine and ten. Animals were terminated 24 hr after the last dose. On the day of termination, animals were anesthetized using 5% isoflurane, and blood was collected via the retroorbital route (in heparin-coated microvette, Sarsted) and centrifuged at 3,500 rpm at 4° C. for 10 minutes, plasma was collected and stored at −80° C. degrees prior to analysis. Animals were then euthanized by the removal of the heart. Both the heart and the kidneys were extracted and weighed. From the right kidney, a 4 mm thick slice of tissue was collected and fixed in 4% formaldehyde for subsequent histological analysis and a piece of cortical kidney tissue and heart tissue was collected for gene expression analysis.
(§2) Plasma and Urine Albumin, Creatinine, Glucose, Urea, Potassium and Sodium levels were analyzed using an ABX Pentra 400 instrument (Horiba Medical, Irvine, California, USA) according to the manufacturers protocol.
(§3) Significance was set at p<0.05.

The conditions of data set [3]: treatment of prostate cancer; development stopped in 2011; cited from earlier work.
The subject of data set [4] is male Wistar rats on 4% salt diet. As to the kind of experiment: Effect of zibotentan on plasma Na, K, glucose and urea, Experiment 1. It counts as in vivo. To be noted: Exp 1. The method, then: as §1, §2, §3

In the case of `CCOc1ccc(Cc2cc([C@@H]3O[C@H](CO)[C@@H](O)[C@H](O)[C@H]3O)ccc2Cl)cc1` [Dapa, (1S)-1,5-anhydro-1-{4-chloro-3-[(4-ethoxyphenyl)methyl]phenyl}-D-glucitol], the concentration at 24 h in data set [1] (whole blood, oral, 3 mg/kg, Dapagliflozin blood concentration, Dapa 3 mg/kg p.o. QD 7 days, 24 hr post last dose) was 0.048 µM; in data set [1] (whole blood, oral, 3 mg/kg, Dapagliflozin blood concentration, Dapa 3 mg/kg p.o. QD, 24 hr post first dose), 0.086 µM. In addition, the concentration at 4 h in data set [1] (whole blood, oral, 3 mg/kg, Dapagliflozin blood concentration, Dapa 3 mg/kg p.o. QD) was 1.94 µM.

For `COc1nc(C)cnc1NS(=O)(=O)c1cccnc1-c1ccc(-c2nnco2)cc1` [Zibo, N-(3-methoxy-5-methylpyrazin-2-yl)-2-[4-(1,3,4-oxadiazol-2-yl)phenyl]pyridine-3-sulfonamide], in data set [2] (Zibo 30 mg/kg p.o. QD), the “Urine Creatine” value stood at 88.8 ± 3.3 µmol, the “Urine Glucose” value is listed as 0.01 ± 0.0 mmol, the “Urine K” value is given as 1.57 ± 0.05 mmol and the “Urine Na” value worked out at 14.05 ± 0.95 mmol. Moreover, in data set [2] (Zibo 30 mg/kg p.o. QD), the “Urine Urea” value came to 6.19 ± 1.71 mmol and the Urine volume stood at 28.19 ± 2.99 mL. Also, in data set [2] (Zibo 100 mg/kg p.o. QD), the “Urine Creatine” value was 82.8 ± 2.5 µmol, the “Urine Glucose” value worked out at 0.02 ± 0.0 mmol, the “Urine K” value was found to be 1.52 ± 0.06 mmol and the “Urine Na” value worked out at 13.01 ± 1.07 mmol. Moreover, in data set [2] (Zibo 100 mg/kg p.o. QD), the “Urine Urea” value is listed as 4.04 ± 0.39 mmol and the Urine volume was found to be 23.88 ± 2.02 mL. In addition, in data set [2] (Zibo 300 mg/kg p.o. QD), the “Urine Creatine” value came to 82.9 ± 3.3 µmol, the “Urine Glucose” value is listed as 0.18 ± 0.1 mmol, the “Urine K” value is listed as 1.44 ± 0.03 mmol and the “Urine Na” value was determined as 13.76 ± 0.76 mmol. Besides, in data set [2] (Zibo 300 mg/kg p.o. QD), the “Urine Urea” value worked out at 4.60 ± 0.19 mmol and the Urine volume amounted to 29.09 ± 2.74 mL. In data set [2] (different doses of zibotentan), the “Level of urinary volume, Na, K, urea, creatinine and glucose compared to vehicle” value is listed as “no change”. Further, the “Efficacy in Phase 3” value in data set [3] is listed as “insufficient efficacy”. In data set [4] (Zibo 30 mg/kg p.o. QD 14 days), the “Plasma Glucose” value is reported as 9.76 ± 0.28 mmol/L, the “Plasma K” value is on record as 4.50 ± 0.06 mmol/L, the “Plasma Na” value came to 137.0 ± 0.96 mmol/L and the “Plasma Urea” value is listed as 4.64 ± 0.20 mmol/L. Besides, in data set [4] (Zibo 100 mg/kg p.o. QD 14 days), the “Plasma Glucose” value amounted to 9.65 ± 0.30 mmol/L, the “Plasma K” value is given as 4.52 ± 0.06 mmol/L, the “Plasma Na” value is given as 137.2 ± 0.97 mmol/L and the “Plasma Urea” value is given as 4.77 ± 0.25 mmol/L. Further, in data set [4] (Zibo 300 mg/kg p.o. QD 14 days), the “Plasma Glucose” value was found to be 9.34 ± 0.13 mmol/L, the “Plasma K” value was 4.76 ± 0.09 mmol/L, the “Plasma Na” value was found to be 139.4 ± 0.86 mmol/L and the “Plasma Urea” value is recorded as 4.94 ± 0.39 mmol/L. Also, the “Level of Na, K, glucose and urea in the plasma compared to vehicle” value in data set [4] (different doses of zibotentan) is given as “no change”. Also, the concentration at 24 h in data set [1] (in vivo, 30 mg/kg, Zibotentan blood concentration, Zibo 30 mg/kg p.o. QD 7 days, 24 hr post last dose) was 22.9 µM. The concentration at 4 h in data set [1] (in vivo, 30 mg/kg, Zibotentan blood concentration, Zibo 30 mg/kg p.o. QD) came to 61.1 µM. In addition, the concentration at 24 h in data set [1] (in vivo, 30 mg/kg, Zibotentan blood concentration, Zibo 30 mg/kg p.o. QD, 24 hr post first dose) is 7.8 µM. Besides, the concentration at 24 h in data set [1] (in vivo, 100 mg/kg, Zibotentan blood concentration, Zibo 100 mg/kg p.o. QD 7 days, 24 hr post last dose) turned out to be 136 µM. In data set [1] (in vivo, 100 mg/kg, Zibotentan blood concentration, Zibo 100 mg/kg p.o. QD), the concentration at 4 h was determined as 161 µM. In data set [1] (in vivo, 100 mg/kg, Zibotentan blood concentration, Zibo 100 mg/kg p.o. QD, 24 hr post first dose), the concentration at 24 h came to 63.9 µM.
